From patent publication US20120142768A1 (BAXTER INTERNATIONAL INC., priority 2010, published 2012)
Where a name gives a salt, the structure may show the parent alone. Read-outs that look alike come from different tables or passages of the source.

Assays:
[1] = Phase solubility of amiodarone with substituted cyclodextrins; conditions: 5% dextrose, 0.9 mM citrate buffer, pH 3.8, room temperature (FIG. 4)
Excerpt: The actual percent of drug that is complexed will vary according to the complexation equilibrium constant characterizing the complexation of a specific cyclodextrin derivative to a specific drug and to the concentrations of the cyclodextrin derivative and drug available for complexation.
Phase solubility studies can also generate information as to the required amounts of a cyclodextrin needed to solubilize a drug under different conditions such as temperature, cyclodextrin type, or solution composition.

[2] = cited from earlier work
[3] = Ravin et al. 1975, cited from earlier work

SBE7-β-CD required for 1.8 mg/mL amiodarone hydrochloride [1] | Structure (SMILES) | Critical micellar concentration (CMC) ([2]; Ravin et al. 1975) | Critical micellar concentration (CMC) ([2]; at Krafft point of ~70 °C, Benedini et al. 2010) [mg/mL] | Amiodarone concentration achievable ([3]; 25 °C) [mg/mL] | Amiodarone concentration achievable ([3]; 40 °C) [mg/mL] | Amiodarone concentration achievable ([3]; about 60 °C) [mg/mL]
about 6 mg/mL | CCCCc1oc2ccccc2c1C(=O)c1cc(I)c(OCCN(CC)CC)c(I)c1 [amiodarone hydrochloride] |  |  |  |  | 
 | CCCCc1oc2ccccc2c1C(=O)c1cc(I)c(OCCN(CC)CC)c(I)c1 [amiodarone] | approximately 0.5 mg/mL | 1.69 | 0.35 | 0.95 | > 13
